Source: ChEMBL document CHEMBL1145498, “A systematic interaction map of validated kinase inhibitors with Ser/Thr kinases” (Proc Natl Acad Sci U S A, 2007)

Assays:
[1] = target: Casein kinase I isoform gamma-3 (Homo sapiens) (UniProt Q9Y6M4)
[2] = target: T1, Calcium/calmodulin-dependent protein kinase type IV (Homo sapiens) (UniProt Q16566)
T1 sequence (whole entry): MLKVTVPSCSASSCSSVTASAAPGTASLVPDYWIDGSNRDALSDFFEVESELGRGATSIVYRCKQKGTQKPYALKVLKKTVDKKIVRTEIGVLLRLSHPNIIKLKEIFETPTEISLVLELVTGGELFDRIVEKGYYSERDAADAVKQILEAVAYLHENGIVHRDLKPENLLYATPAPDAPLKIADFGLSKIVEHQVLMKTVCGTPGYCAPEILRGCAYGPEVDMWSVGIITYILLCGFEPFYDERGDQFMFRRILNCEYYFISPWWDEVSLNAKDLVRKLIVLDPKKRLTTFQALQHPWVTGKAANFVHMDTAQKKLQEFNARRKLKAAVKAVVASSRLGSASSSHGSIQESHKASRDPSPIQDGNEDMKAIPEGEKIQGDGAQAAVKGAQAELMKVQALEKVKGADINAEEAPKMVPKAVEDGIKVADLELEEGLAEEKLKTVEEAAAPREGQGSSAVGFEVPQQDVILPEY

[3] = target: Serine/threonine-protein kinase OSR1 (Homo sapiens) (UniProt O95747)
[4] = target: Ribosomal protein S6 kinase alpha-3 (Homo sapiens) (UniProt P51812)
[5] = target: T2, Serine/threonine-protein kinase 4 (Homo sapiens) (UniProt Q13043)
T2 sequence (whole entry): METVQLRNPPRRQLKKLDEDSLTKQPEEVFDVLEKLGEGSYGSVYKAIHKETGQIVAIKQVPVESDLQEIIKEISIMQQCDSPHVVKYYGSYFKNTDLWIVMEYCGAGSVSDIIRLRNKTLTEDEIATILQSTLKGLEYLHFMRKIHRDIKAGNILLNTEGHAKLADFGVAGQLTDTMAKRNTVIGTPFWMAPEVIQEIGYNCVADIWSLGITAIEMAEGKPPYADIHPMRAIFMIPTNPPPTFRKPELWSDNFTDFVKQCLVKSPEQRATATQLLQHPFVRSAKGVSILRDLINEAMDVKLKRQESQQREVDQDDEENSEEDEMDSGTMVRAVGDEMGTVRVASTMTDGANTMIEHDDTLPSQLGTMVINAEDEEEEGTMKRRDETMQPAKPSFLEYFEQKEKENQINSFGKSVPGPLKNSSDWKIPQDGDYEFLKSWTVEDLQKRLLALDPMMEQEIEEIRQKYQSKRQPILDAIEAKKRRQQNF

[6] = target: Serine/threonine-protein kinase PAK 4 (Homo sapiens) (UniProt O96013)
[7] = target: Tyrosine-protein kinase JAK1 (Homo sapiens) (UniProt P23458)
[8] = target: T3, Myotonin-protein kinase (Homo sapiens) (UniProt Q09013)
T3 sequence (whole entry): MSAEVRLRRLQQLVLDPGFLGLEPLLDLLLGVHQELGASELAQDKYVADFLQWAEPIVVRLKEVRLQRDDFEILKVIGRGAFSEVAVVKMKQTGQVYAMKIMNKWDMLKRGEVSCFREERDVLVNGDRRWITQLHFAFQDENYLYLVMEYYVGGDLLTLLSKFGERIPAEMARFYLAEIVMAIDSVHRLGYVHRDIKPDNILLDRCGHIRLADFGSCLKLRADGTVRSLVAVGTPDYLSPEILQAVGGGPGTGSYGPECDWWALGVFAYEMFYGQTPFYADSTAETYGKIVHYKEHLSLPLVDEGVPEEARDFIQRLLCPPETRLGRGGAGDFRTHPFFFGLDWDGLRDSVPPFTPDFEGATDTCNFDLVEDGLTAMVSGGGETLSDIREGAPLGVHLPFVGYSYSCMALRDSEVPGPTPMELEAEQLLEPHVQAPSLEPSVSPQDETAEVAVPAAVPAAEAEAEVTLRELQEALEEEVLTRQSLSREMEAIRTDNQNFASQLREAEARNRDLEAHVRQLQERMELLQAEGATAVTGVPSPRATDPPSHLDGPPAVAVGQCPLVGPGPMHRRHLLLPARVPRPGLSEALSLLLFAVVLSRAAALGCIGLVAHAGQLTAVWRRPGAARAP

[9] = target: Dual specificity protein kinase CLK1 (Homo sapiens) (UniProt P49759)
[10] = target: Serine/threonine-protein kinase pim-1 (Homo sapiens) (UniProt P11309)
[11] = target: Calcium/calmodulin-dependent protein kinase type 1G (Homo sapiens) (UniProt Q96NX5)
[12] = target: Serine/threonine-protein kinase PAK 5 (Homo sapiens) (UniProt Q9P286)
[13] = target: T4, 3-phosphoinositide-dependent protein kinase 1 (Homo sapiens) (UniProt O15530)
T4 sequence (whole entry): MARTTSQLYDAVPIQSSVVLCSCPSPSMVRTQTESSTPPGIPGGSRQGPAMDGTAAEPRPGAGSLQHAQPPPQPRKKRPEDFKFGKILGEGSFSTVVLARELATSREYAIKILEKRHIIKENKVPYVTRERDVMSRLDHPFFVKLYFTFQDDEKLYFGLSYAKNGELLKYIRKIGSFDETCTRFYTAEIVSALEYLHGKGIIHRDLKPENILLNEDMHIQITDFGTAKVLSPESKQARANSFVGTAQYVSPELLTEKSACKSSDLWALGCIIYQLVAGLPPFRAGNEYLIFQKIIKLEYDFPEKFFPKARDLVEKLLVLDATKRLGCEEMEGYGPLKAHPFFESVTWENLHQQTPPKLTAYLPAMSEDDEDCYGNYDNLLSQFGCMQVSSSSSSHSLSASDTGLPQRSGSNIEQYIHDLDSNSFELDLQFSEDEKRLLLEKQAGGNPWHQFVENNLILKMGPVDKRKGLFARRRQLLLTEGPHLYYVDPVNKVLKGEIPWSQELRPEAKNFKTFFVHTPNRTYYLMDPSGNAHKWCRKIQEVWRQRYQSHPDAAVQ

[14] = target: Cyclin-dependent kinase-like 1 (Homo sapiens) (UniProt Q00532)
Sequence of Cyclin-dependent kinase-like 1 (Homo sapiens) (Q00532 whole entry): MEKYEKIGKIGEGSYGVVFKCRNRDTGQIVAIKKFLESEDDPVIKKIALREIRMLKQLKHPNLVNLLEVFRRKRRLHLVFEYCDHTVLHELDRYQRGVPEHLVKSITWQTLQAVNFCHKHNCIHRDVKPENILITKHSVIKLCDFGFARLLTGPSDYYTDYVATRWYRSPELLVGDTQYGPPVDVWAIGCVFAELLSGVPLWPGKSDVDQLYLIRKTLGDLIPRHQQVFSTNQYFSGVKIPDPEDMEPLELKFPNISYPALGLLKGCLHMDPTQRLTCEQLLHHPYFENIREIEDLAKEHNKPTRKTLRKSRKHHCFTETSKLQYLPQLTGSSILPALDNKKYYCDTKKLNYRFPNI

Sequence of Serine/threonine-protein kinase PAK 4 (Homo sapiens) (O96013 whole entry, looked up): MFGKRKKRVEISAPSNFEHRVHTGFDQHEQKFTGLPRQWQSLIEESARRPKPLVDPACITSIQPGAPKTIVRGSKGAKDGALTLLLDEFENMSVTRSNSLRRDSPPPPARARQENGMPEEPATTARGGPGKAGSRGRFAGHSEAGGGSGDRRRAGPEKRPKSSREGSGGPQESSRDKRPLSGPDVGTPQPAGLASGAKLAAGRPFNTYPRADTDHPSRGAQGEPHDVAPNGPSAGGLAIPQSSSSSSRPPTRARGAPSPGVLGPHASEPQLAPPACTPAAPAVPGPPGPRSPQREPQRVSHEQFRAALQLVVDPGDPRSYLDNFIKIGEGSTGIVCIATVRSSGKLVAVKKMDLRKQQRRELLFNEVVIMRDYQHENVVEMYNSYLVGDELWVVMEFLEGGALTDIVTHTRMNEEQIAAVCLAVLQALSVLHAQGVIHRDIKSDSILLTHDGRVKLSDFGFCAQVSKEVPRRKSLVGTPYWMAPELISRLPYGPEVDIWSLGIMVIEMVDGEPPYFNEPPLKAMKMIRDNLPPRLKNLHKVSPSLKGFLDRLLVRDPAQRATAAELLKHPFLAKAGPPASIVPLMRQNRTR
Sequence of Serine/threonine-protein kinase PAK 5 (Homo sapiens) (Q9P286 whole entry, looked up): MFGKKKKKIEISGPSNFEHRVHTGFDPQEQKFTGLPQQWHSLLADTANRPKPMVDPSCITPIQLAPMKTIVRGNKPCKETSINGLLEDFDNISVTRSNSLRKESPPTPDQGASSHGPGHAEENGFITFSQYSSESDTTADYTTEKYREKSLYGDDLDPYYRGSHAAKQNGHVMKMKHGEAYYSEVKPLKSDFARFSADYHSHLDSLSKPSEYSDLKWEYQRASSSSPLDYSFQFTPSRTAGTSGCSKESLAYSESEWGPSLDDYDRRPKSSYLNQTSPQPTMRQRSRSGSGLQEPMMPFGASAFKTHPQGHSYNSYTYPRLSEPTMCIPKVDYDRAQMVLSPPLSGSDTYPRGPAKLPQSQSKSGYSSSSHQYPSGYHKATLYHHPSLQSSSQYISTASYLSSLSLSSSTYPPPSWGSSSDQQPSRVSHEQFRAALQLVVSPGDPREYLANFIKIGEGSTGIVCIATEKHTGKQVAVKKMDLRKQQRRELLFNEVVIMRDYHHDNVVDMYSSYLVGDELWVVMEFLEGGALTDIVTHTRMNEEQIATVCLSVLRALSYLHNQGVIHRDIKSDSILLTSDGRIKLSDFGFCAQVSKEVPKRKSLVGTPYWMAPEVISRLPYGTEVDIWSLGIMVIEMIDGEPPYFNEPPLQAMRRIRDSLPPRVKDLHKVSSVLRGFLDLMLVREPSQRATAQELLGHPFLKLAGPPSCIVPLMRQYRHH
Sequence of Ribosomal protein S6 kinase alpha-3 (Homo sapiens) (P51812 whole entry): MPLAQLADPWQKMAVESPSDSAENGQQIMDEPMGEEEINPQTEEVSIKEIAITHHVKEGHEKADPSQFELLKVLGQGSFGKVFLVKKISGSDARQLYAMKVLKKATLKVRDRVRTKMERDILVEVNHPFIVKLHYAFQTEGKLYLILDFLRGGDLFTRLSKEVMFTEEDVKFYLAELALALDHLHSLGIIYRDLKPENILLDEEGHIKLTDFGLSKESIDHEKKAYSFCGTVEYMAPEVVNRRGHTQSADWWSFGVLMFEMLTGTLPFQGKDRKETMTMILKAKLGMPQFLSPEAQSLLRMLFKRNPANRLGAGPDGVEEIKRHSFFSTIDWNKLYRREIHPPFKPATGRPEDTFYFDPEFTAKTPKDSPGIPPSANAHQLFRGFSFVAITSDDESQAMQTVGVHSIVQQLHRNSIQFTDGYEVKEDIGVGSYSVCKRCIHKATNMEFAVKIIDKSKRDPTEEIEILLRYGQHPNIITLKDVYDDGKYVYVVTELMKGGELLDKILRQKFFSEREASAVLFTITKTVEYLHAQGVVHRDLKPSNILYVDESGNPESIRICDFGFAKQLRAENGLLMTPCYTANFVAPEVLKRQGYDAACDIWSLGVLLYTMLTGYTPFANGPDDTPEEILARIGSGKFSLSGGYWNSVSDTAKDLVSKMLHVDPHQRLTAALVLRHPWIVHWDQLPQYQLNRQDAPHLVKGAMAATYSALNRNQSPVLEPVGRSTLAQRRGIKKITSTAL
Sequence of Dual specificity protein kinase CLK1 (Homo sapiens) (P49759 whole entry, looked up): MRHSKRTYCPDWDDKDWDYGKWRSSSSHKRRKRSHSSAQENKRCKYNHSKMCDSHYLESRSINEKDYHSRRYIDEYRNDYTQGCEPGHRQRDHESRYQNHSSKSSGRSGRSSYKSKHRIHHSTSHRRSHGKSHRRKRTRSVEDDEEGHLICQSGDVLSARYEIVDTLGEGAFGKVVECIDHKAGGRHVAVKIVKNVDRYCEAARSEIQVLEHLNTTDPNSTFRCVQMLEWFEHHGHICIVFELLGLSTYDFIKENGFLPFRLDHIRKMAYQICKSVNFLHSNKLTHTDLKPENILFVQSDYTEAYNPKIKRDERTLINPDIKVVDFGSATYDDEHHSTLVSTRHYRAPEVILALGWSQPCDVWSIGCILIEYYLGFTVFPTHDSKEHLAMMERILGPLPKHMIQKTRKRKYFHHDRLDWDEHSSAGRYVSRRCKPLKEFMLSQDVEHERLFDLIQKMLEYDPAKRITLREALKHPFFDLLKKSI
Sequence of Calcium/calmodulin-dependent protein kinase type 1G (Homo sapiens) (Q96NX5 whole entry): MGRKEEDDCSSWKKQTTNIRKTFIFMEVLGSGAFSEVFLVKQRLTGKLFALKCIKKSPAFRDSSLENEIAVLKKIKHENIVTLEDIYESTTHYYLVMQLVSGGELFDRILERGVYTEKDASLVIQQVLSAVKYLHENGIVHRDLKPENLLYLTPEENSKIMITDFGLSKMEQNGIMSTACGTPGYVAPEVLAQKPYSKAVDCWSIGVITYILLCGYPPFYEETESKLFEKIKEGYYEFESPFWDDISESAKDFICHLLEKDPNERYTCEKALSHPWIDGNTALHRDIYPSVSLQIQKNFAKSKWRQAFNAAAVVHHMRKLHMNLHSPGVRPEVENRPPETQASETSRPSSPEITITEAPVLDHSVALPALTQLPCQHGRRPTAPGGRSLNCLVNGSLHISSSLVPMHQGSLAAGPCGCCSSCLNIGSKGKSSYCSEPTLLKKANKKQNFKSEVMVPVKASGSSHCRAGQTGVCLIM
Sequence of Casein kinase I isoform gamma-3 (Homo sapiens) (Q9Y6M4 whole entry, looked up, canonical isoform): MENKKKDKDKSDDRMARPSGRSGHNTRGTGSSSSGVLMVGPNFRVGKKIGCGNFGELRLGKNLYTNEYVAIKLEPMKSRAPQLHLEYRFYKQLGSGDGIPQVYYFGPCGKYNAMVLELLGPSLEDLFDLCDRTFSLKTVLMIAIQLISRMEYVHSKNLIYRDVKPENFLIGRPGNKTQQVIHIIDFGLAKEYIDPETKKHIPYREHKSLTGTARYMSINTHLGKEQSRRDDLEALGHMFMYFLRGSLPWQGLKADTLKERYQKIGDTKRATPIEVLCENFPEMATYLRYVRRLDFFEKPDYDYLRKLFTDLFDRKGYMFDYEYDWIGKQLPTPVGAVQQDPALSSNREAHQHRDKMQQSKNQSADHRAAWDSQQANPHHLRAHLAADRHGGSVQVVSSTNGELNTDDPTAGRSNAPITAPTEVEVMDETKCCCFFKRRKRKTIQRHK
Sequence of Serine/threonine-protein kinase OSR1 (Homo sapiens) (O95747 2-527 limits assumed): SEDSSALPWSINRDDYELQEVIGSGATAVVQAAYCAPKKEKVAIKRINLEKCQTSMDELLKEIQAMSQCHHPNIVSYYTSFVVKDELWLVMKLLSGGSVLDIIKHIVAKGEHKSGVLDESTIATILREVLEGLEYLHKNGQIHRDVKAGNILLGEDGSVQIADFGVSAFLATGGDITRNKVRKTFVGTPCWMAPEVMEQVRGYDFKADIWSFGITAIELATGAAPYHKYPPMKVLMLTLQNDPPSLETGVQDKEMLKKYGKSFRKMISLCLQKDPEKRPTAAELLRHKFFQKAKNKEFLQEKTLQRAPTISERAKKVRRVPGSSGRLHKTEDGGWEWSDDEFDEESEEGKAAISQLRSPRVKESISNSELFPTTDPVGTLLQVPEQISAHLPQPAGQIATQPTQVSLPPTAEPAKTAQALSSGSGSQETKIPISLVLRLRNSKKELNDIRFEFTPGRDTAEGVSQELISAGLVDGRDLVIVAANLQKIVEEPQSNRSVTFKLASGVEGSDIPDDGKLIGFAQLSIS
Sequence of Serine/threonine-protein kinase pim-1 (Homo sapiens) (P11309 whole entry, looked up): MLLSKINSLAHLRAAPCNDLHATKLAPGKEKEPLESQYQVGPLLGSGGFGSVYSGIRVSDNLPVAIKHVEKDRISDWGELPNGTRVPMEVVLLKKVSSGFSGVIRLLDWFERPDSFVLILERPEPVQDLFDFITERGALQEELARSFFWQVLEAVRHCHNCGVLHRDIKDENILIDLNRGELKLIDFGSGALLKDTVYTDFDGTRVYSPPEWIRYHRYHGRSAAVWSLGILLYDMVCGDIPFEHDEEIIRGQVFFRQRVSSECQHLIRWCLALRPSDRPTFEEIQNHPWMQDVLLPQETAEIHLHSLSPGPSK

Compound	ΔTm [1]	ΔTm [2]	ΔTm [3]	ΔTm [4]	ΔTm [5]	ΔTm [6]	ΔTm [7]	ΔTm [8]	ΔTm [9]	ΔTm [10]	ΔTm [11]	ΔTm [12]	ΔTm [13]	ΔTm [14]
COC1=C2C[C@@H](C)C[C@H](OC)[C@H](O)[C@@H](C)/C=C(\C)[C@H](OC(N)=O)[C@@H](OC)/C=C\C=C(/C)C(=O)NC(=CC1=O)C2=O	0.4 °C	0 °C	0.8 °C	0.2 °C	0.1 °C	-0.2 °C	-0.5 °C	-0.3 °C	0.6 °C	-0.2 °C	0.2 °C	0 °C	0 °C	-0.5 °C
O=S(=O)(NCCNC/C=C/c1ccc(Br)cc1)c1cccc2cnccc12	0.1 °C	0.4 °C	0.9 °C	2.2 °C	-0.2 °C	1 °C	-0.3 °C	-0.6 °C	1.1 °C	-0.2 °C	0 °C	1.2 °C	-0.7 °C	-0.1 °C
O=C1NC(=O)C(c2c[nH]c3ccccc23)=C1c1c[nH]c2ccccc12	0.7 °C	2.8 °C	2 °C	3.6 °C	4.1 °C	1.8 °C	-0.5 °C	3.8 °C	4.1 °C	5.9 °C	1 °C	0.6 °C	0 °C	0.6 °C
O=C1C=C2C(=Nc3c2c2c(c4c3=NC3=C4CCC=C3)C=NC=2)CC1	0.8 °C	0.8 °C	2.1 °C	4.4 °C	2.1 °C	3.8 °C	6.9 °C	5.1 °C	3.1 °C	7.5 °C	3.6 °C	2.7 °C	-0.3 °C	6.6 °C
O=c1cc(-c2ccc(O)cc2)oc2cc(O)cc(O)c12	0.7 °C	2.1 °C	2.2 °C	2.7 °C	2.8 °C	0.3 °C	4.6 °C	0.6 °C	3.9 °C	3.7 °C	0.9 °C	0.4 °C	-1.9 °C	1.4 °C
Cn1cc(/C=C2/C(=O)Nc3ccc(S(N)(=O)=O)cc32)c2ccccc21	0.2 °C	1.1 °C	3.7 °C	7.8 °C	-0.4 °C	3.7 °C	4.3 °C	3.7 °C	4.7 °C	3.1 °C	0.5 °C	4.3 °C	0.2 °C	0.2 °C
N#C/C(=C\c1ccc(O)c(O)c1)C(=O)Nc1ccccc1	1.2 °C	0.6 °C	0.6 °C	0.8 °C	0.4 °C	-0.5 °C	0.8 °C	-0.1 °C	1 °C	1.6 °C	0.4 °C	0.4 °C	-0.3 °C	-0.1 °C
COC(=O)[C@]1(O)C[C@@H]2O[C@@]1(C)n1c3ccccc3c3c4c(c5c6ccccc6n2c5c31)C(=O)NC4 (single isomer, unassigned)	0.2 °C	1.8 °C	1.8 °C	7.3 °C	9.5 °C	3.9 °C	0.8 °C	3.9 °C	10.6 °C	3.7 °C	2.2 °C	5.5 °C	-0.4 °C	6.9 °C
O=c1c(-c2ccc(O)cc2)coc2cc(O)cc(O)c12	1.6 °C	-0.8 °C	-0.2 °C	0.2 °C	1.5 °C	0.8 °C	-0.2 °C	2.4 °C	1.1 °C	3.3 °C	-0.1 °C	0.2 °C	2.5 °C	-0.1 °C
CN(C)c1ccc(CC2C(=O)Nc3ccccc32)cc1 (stereo unspecified)	0.8 °C	0.1 °C	-0.6 °C	3.6 °C	4.4 °C	0.9 °C	5.5 °C	-1.8 °C	2 °C	-0.2 °C	-0.2 °C	0.3 °C	0.3 °C	-0.3 °C
O=C1Nc2ccc(I)cc2/C1=C1/Nc2ccccc2/C1=N\O	1.8 °C	2.6 °C	-1.3 °C	2.7 °C	9.5 °C	2.3 °C	8.3 °C	1 °C	3.2 °C	1.7 °C	0.5 °C	1.3 °C	-0.3 °C	5.4 °C
Nc1cc2ncnc(Nc3cccc(Br)c3)c2cc1N	0.4 °C	0.4 °C	1 °C	0.9 °C	2.7 °C	0.6 °C	2.2 °C	0.1 °C	2.2 °C	3.4 °C	0.5 °C	0.2 °C	-0.2 °C	0.8 °C
O=C1Cc2c([nH]c3ccc([N+](=O)[O-])cc23)-c2ccccc2N1	0.9 °C	0.8 °C	1.2 °C	2.4 °C	5.1 °C	2.1 °C	1 °C	1.9 °C	2.2 °C	3 °C	0.5 °C	3.8 °C	0 °C	0.4 °C
O=C1Nc2ccc(I)cc2/C1=C\c1cc(Br)c(O)c(Br)c1	0 °C	0.2 °C	-0.4 °C	2.7 °C	4.1 °C	-0.8 °C	4.5 °C	0.2 °C	1.3 °C	2.5 °C	-1.8 °C	1 °C	-1 °C	-2.8 °C
